Data on three molecules can be found in US7442501B2, “SQV nucleic acids and polypeptides” (Massachusetts Institute of Technology, priority 2002, dated 2008).

Some results are limits rather than exact numbers.

Data set [1] relates to chondroitin synthase. Nature of the data set: GalNAcT (N-acetylgalactosamyl transferase) assay of chondroitin synthase activity in worm protein extracts. It counts as biochemical. As to conditions: extract genotype sqv-5/sqv-5 (sqv-5(n3611)). The procedure:
(§1) sqv-5(n3611), sqv-5(n3611)/hT2, and wild-type (N2) animals were used to prepare worm protein extracts. These extracts were tested for chondroitin synthase activity using standard methods, for example, in DeAngelis et al., (J. Biol. Chem. 27:24124-24129, 2000).
(§2) A desulfated chondroitin acceptor was used for the GalNAcT (N-acetylgalactosamyl transferase) assay. Desulfated and β-glucuronidase-treated chondroitin acceptor was used for the GlcAT (glucuronyl transferase) assay.
(§3) The enzymatic activity of SQV-5 was assayed as follows. SQV-5(n3611), sqv-5(n3611)/hT2, and wild-type N2 hermaphrodites were picked as L4 larvae by visual examination of the vulva using a dissecting microscope. The worms staged were allowed to grow for an additional twenty-three to twenty-seven hours at 22° C., re-examined, then transferred to 1.7-ml plastic tubes containing sterile water. The staged worms were washed once with water and twice with 50 mM Tris, pH 7.5, then frozen in a 50 μl volume using liquid nitrogen, and stored at −70° C.
(§4) Worm extracts were assayed for GIcAT glucoronosyltransferase activity by combining 1.3×10^5 cpm UDP-^3H-glucuronic acid donor (NEN), 6 μg β-glucuronidase-treated chondroitin acceptor, and 2.7 μg worm extract in a 25 μl reaction volume containing 0.05% Triton X-100, 10 mM MnCl2, and 100 μM ATP, pH 6.5. GalNAcT activity was detected by combining 1.3 to 3×10^5 cpm UDP-^3H-GalNAc donor (NEN), 12 μg chondroitin acceptor, and 6.7 μg worm extract in a 25 μl reaction volume containing 0.05% Triton X-100 and 10 mM MnCl2, pH 6.5. […] Pelleted material was resuspended in water and counted by liquid scintillation.
(§5) The chondroitin acceptor used was prepared as follows. […] Uronic acid concentration of both preparations was determined by the Carbazole method (Bitter, et al., Anal. Biochem. 4:330-334, 1962).

In data set [2] the target is T1, chondroitin synthase (Caenorhabditis elegans, UniProt Q7Z1Z1).
T1 construct: wild-type (N2) animals were used to prepare worm protein extracts; from tissue; host or cells: whole C. elegans hermaphrodites (young adults), sonicated protein extract
T1 sequence (Q7Z1Z1 1-736): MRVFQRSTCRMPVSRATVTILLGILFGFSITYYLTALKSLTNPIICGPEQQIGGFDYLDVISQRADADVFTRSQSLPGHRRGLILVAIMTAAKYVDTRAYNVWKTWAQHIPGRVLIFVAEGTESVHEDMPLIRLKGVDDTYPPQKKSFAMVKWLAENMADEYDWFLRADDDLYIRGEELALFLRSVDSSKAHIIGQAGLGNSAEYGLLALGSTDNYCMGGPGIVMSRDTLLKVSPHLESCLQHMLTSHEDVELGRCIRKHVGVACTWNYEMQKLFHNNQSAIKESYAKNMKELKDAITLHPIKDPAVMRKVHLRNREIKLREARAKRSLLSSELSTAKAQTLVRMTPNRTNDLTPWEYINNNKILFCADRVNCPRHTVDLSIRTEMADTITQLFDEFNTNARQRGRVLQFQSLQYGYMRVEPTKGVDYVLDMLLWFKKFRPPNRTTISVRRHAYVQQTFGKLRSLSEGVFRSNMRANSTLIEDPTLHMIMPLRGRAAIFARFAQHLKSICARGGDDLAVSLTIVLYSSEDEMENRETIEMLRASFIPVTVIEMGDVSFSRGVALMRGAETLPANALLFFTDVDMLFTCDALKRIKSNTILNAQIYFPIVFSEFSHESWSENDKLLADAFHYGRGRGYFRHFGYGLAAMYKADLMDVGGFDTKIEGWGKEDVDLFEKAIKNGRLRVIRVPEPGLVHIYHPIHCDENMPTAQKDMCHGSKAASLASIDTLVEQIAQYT
The description is as above. It counts as biochemical. Here is the method:
as §1, §2, §3, §4, §5

For data set [3], the target named is T2, chicken UDP-glucose dehydrogenase (Gallus gallus, UniProt Q5F3T9).
T2 sequence (Q5F3T9 1-494): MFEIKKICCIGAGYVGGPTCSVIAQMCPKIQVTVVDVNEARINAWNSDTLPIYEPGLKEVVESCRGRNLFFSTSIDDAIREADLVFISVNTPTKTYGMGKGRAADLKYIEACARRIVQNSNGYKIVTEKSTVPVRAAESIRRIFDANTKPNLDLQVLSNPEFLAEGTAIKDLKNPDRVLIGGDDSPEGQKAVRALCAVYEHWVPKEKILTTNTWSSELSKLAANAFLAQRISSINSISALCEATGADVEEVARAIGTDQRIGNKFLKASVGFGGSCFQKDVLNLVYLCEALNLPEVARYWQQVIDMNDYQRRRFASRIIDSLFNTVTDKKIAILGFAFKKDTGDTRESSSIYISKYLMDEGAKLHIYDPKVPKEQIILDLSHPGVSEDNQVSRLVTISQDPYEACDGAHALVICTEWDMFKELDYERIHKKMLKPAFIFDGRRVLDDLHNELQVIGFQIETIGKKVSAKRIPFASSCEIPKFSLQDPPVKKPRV
The settings on record: cited from earlier work.

Data set [4] has as its target UDP-glucose dehydrogenase (Escherichia coli, UniProt P76373). The settings on record: cited from earlier work.
Data set [5] deals with Streptococcus pyogenes UDP-glucose dehydrogenase (Streptococcus pyogenes, UniProt P0C0F4). As to conditions: cited from earlier work.
Chain of Streptococcus pyogenes UDP-glucose dehydrogenase (P0C0F4 whole entry): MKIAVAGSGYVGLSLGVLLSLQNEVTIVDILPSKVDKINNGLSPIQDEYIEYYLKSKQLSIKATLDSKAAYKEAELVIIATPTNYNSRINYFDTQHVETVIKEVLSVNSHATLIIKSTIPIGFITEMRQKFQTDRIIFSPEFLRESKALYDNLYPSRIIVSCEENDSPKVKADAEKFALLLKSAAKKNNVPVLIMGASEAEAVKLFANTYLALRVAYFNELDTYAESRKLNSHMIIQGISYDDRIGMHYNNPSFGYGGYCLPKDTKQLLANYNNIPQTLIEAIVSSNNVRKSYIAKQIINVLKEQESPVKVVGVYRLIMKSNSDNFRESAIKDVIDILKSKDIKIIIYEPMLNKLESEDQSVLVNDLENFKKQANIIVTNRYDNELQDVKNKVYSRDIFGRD
For data set [6], the target named is T3, SQV-4 (Caenorhabditis elegans, UniProt Q19905, T2A).
T3 construct: were used for PCR-amplification of the sqv-4 ORF, and the resulting product was digested with NcoI and XhoI and cloned into pET21d; made in house; host or cells: E. coli BL21 pLysS, pET21d; soluble fraction used without purification
T3 sequence (Q19905 whole entry T2A): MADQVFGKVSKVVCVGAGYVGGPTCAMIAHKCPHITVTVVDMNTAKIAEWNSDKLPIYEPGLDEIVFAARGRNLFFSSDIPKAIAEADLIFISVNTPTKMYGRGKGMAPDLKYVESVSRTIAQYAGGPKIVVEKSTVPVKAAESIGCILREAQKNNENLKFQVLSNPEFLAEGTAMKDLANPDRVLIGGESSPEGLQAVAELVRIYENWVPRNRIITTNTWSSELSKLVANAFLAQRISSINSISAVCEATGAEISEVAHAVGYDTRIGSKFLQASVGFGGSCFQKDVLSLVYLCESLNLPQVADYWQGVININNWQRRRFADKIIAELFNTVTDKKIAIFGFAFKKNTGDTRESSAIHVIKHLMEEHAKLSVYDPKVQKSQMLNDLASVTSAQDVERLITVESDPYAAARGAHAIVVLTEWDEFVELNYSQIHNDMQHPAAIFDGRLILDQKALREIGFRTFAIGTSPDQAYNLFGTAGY
It counts as biochemical, C. elegans. The settings on record: double-reciprocal plot of initial velocities, bacterially expressed SQV-4. An excerpt: (§6) The sqv-4 coding sequences corresponding to the wild-type, n2827, and n2840 alleles were cloned into the pET21d E. coli expression vector and transformed into BL21 pLysS. The oligonucleotides 5′-[…]-3′ (SEQ ID NO:53) and 5′-[…]-3′ (SEQ ID NO:54) were used to generate R353H n2827 and T4101 n2840 mutations, respectively, by site-directed mutagenesis. The oligonucleotides 5′-[…]-3′ (SEQ ID NO:55) and 5′-[…]-3′ (SEQ ID NO:56) were used for PCR-amplification of the sqv-4 ORF, and the resulting product was digested with NcoI and XhoI and cloned into pET21d. All three proteins have a threonine to alanine mutation in the second amino acid because of the addition of an NcoI site at the 5′ end. SQV-4 expression was induced by incubation with 1 mM IPTG for three to four hours at 37° C. E. coli were pelleted and resuspended in 50 mM Tris-HCl pH 7.5, 1 mM DTT, 1 mM EDTA, 1 mM PMSF, 2 μg/ml pepstatin A, and aprotinin and lysed using a French pressure cell. The soluble fraction was separated from the insoluble inclusion bodies by centrifugation at 12,000 g for 20 minutes.
(§7) All assays were performed at room temperature (20 to 22° C.) in 50 mM Tris-HCl, 2 mM dithiothrietol (DTT), pH 8.7. The initial velocity of the reaction was determined from time points during the first 60 seconds after addition of the SQV-4 extract.

In data set [7] the target is T4, SQV-4 (Caenorhabditis elegans, UniProt Q19905, R353H/T2A).
T4 construct: were used for PCR-amplification of the sqv-4 ORF, and the resulting product was digested with NcoI and XhoI and cloned into pET21d; made in house; host or cells: E. coli BL21 pLysS, pET21d; soluble fraction used without purification
T4 sequence (Q19905 whole entry T2A/R353H): as the sequence (Q19905 whole entry T2A) above, with R353H counted along it
It counts as biochemical, C. elegans. As to conditions: bacterially expressed mutant protein.
Source text: as §6, §7

In the case of `CC(=O)N[C@H]1[C@@H](OP(=O)(O)OP(=O)(O)OC[C@H]2O[C@@H](n3ccc(=O)[nH]c3=O)[C@H](O)[C@@H]2O)O[C@H](CO)[C@H](O)[C@@H]1O` [UDP-N-acetylgalactosamine], the CPM was less than 0 CPM in the data set with chondroitin synthase [1], 171 CPM on chondroitin synthase [2] (extract genotype +/+ (wild-type)) and 134 CPM on chondroitin synthase [2] (extract genotype +/sqv-5 (sqv-5(n3611)/hT2)).

For the molecule `NC(=O)c1ccc[n+]([C@@H]2O[C@H](COP(=O)([O-])OP(=O)(O)OC[C@H]3O[C@@H](n4cnc5c(N)ncnc54)[C@H](O)[C@@H]3O)[C@@H](O)[C@H]2O)c1` [NAD^+], the Km in data set [3] is 900 µM; in data set [4] it was 50 µM; in data set [5], 60 µM; at SQV-4 [6], 200 µM.

B1: SQV-4 protein that contained a histidine for arginine substitution at amino acid position 353: bacterially expressed mutant SQV-4 corresponding to the sqv-4 mutant allele n2827 (protein, UniProt Q19905 1-481, looked up, variant R353H)
UDP-glucose 6-dehydrogenase: MTDQVFGKVSKVVCVGAGYVGGPTCAMIAHKCPHITVTVVDMNTAKIAEWNSDKLPIYEPGLDEIVFAARGRNLFFSSDIPKAIAEADLIFISVNTPTKMYGRGKGMAPDLKYVESVSRTIAQYAGGPKIVVEKSTVPVKAAESIGCILREAQKNNENLKFQVLSNPEFLAEGTAMKDLANPDRVLIGGESSPEGLQAVAELVRIYENWVPRNRIITTNTWSSELSKLVANAFLAQRISSINSISAVCEATGAEISEVAHAVGYDTRIGSKFLQASVGFGGSCFQKDVLSLVYLCESLNLPQVADYWQGVININNWQRRRFADKIIAELFNTVTDKKIAIFGFAFKKNTGDTHESSAIHVIKHLMEEHAKLSVYDPKVQKSQMLNDLASVTSAQDVERLITVESDPYAAARGAHAIVVLTEWDEFVELNYSQIHNDMQHPAAIFDGRLILDQKALREIGFRTFAIGTSPDQAYNLFGTAGY
As to B1, in the data set with SQV-4 [7], the “decrease in UDP-glucose dehydrogenase activity” value is reported as “greater than 20 fold”.
